Test results as given in PMC6753678, “Fueling Open Innovation for Malaria Transmission-Blocking Drugs: Hundreds of Molecules Targeting Early Parasite Mosquito Stages” (Frontiers in Microbiology, 2019).
pIC50: −log10 of the molar value. Like-named read-outs stand apart in the source and are kept apart here.

How the values were obtained:
[1] = system: P. falciparum late stage (stages IV-V) gametocytes; experiment: P. falciparum late stage gametocyte ATP depletion assay (Pf GC-ATP); settings: 1: YES; 0: NO; >10-fold selectivity over cytotoxicity
HepG2 cells [2] = experiment: HepG2 cytotoxicity assay
In short: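 Cells are plated at 2,500 per well on compound-treated plates in MEM containing 10% fetal bovine serum and 1% NEAA, then incubated 48 h at 37°C.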

[3] = system: P. falciparum late stage (stages IV-V) gametocytes; design: method as in Almela et al 2016; settings: ref Almela et al 2016, read-out: Pf GCT ATP IC50, cited from earlier work
[4] = system: P. berghei ookinete development; settings: for % inhibition, Replicate A / % inhibition, Replicate B: primary screen at 1 μM
HepG2 cells [5] = settings: ref Almela et al 2016, cited from earlier work
[6] = system: 3D7-strain P. falciparum asexual parasites; experiment: P. falciparum asexual growth inhibition assay (Pf GIA); format: cell-based, Plasmodium falciparum; settings: dose response confirmation; read-out: Pf asexual growth inhibition assays IC50
In short: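 LDH readout: absorbance at 650 nm after 10 min at room temperature with lactate/APAD/NBT/diaphorase mix on thawed plates. Cultures (0.25% parasitemia, 2% hematocrit) were treated 72 h at 37°C in low-oxygen gas. Inhibition was normalised to 50 μM chloroquine and DMSO; n=3 biological replicates.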

[7] = system: P. falciparum female gametocytes; design: method as in Miguel-Blanco et al 2017; settings: TCAMS screen comparison; ref Miguel-Blanco et al 2017; read-out: Pf FGAA IC50; cited from earlier work
[8] = HepG2 cytotoxicity unified across screens, >25 set to 25.00
[9] = P. falciparum late stage gametocyte ATP assay, TCAMS screen
[10] = read-out: Pb ODA IC50, this manuscript
[11] = read-out: Pb Ookinete development assay IC50, dose response confirmation
[12] = HepG2 data listed with Pf GCT ATP screen
[13] = P. falciparum late stage gametocyte ATP assay
[14] = reported with the Pf GCT ATP screen

SMILES | Is compound selective in assay? Pf GC-ATP active? [1] | Unified cytotox (HepG2 cells [2]; [8]) [µM] | pIC50 [3, 9] | further results
CN(C)CCCn1c(N)c(-c2nc3ccccc3[nH]2)c2nc(C#N)c(C#N)nc21 [TCMDC-123729] | 1 (1: YES) | 6.93 | 6.70 | –
Clc1ccc(Nc2nc(-c3ccccn3)cs2)nc1 [TCMDC-123885] | – | – | – | % inhibition, Replicate A [4]: -3.14%; % inhibition, Replicate B [4]: 71.58%; pIC50 [4, 10]: 5.43; pIC50 [4, 11]: 5.43; HepG2 cytoxicity (Pf GCT ATP screen) (HepG2 cells [5]): 20.8 µM; pIC50 [6]: 5.80; pIC50 [3]: 6.17
Cc1cc(NCCCCCCNc2cc(C)nc3c(C)cccc23)c2cccc(C)c2n1.Cl [TCMDC-125702] | – | – | – | HepG2 cytoxicity (HepG2 cells [5]; [12]): >25 µM; pIC50 [3, 13]: 5.48
Cc1ccc(Nc2nc(-c3ccccn3)cs2)nc1 [TCMDC-125854] | – | – | – | pIC50 [7]: 7.56; Unified cytotox (HepG2 cells [2]; HepG2 cytotoxicity unified across the three screens): 33.07 µM; pIC50 ([3]; TCAMS screen comparison): 6.80
CCN(CC)/C(=N/C(=N)Nc1ccc(Cl)c(Cl)c1)NCCCCCCN/C(=N\C(=N)Nc1ccc(Cl)c(Cl)c1)N(CC)CC [TCMDC-131808] | – | – | – | HepG2 cytoxicity (HepG2 cells [5]; [12]): >25 µM; pIC50 [3, 13]: 5.46
CCC1=C(C[C@H]2NCCc3cc(OC)c(OC)cc32)C[C@H]2c3cc(OC)c(OC)cc3CCN2C1.Cl [TCMDC-131825] | – | – | – | % inhibition, Replicate A [4]: 90.26%; % inhibition, Replicate B [4]: 99.18%; pIC50 [4, 10]: 6.43; pIC50 [4, 11]: 6.44; HepG2 cytoxicity (Pf GCT ATP screen) (HepG2 cells [5]): >25 µM; pIC50 [6]: 6.90; pIC50 [3]: 6.52
Nc1c2ccccc2nc2ccc(-c3ccccc3)cc12 [TCMDC-132030] | 0 (0: NO) | 3.30 | 6.31 | –
CCc1c(CCNCCCCCCNCCc2ccc(Br)cc2)ccc(OC)c1OC.Cl [TCMDC-132045] | 1 (1: YES) | 3.20 | 6.66 | –
CCc1c(CCNCCCCCCNCCc2ccc(OC)c(OC)c2C)ccc(OC)c1OC.Cl [TCMDC-132051] | 1 (1: YES) | 7.75 | 6.11 | –
CCc1c(CCNCCc2cccc(CCNCCc3ccc(OC)c(OC)c3CC)c2)ccc(OC)c1OC.Cl [TCMDC-132056] | 0 (0: NO) | 4.11 | 6.26 | –
CCc1c(CCNCCCC(C)CCNCCc2ccc(OC)c(OC)c2CC)ccc(OC)c1OC.Cl (stereo not drawn) [TCMDC-132065] | 1 (1: YES) | 6.00 | 6.35 | –
COc1cccc(CCc2c(CCNCCCCCCNCCc3ccccc3)ccc(OC)c2OC)c1.Cl [TCMDC-132105] | 1 (1: YES) | 7.70 | 6.74 | –
Cc1cc(-c2cccc(CNC3CCCC3)c2)ccc1S(=O)(=O)NCCN1CCCC1.O=C(O)C(F)(F)F [TCMDC-132279] | 0 (0: NO) | 7.50 | 5.91 | –
O=C(O)C(F)(F)F.O=S(=O)(NCCN1CCCC1)c1cccc(-c2ccc(CNCc3ccc(F)cc3)cc2)c1 [TCMDC-132289] | 0 (0: NO) | 7.40 | 5.57 | –
COc1ccc(CNCc2ccc(F)cc2)cc1-c1ccc(S(=O)(=O)NCCN2CCCC2)cc1.O=C(O)C(F)(F)F [TCMDC-132294] | 0 (0: NO) | 6.50 | 5.92 | –
COc1ccc(CNCc2ccc(F)cc2)cc1-c1ccc(OC)c(S(=O)(=O)NCCN2CCCC2)c1.O=C(O)C(F)(F)F [TCMDC-132295] | 1 (1: YES) | 11.40 | 6.14 | –

SMILES | Is compound selective in assay? Pf GC-ATP active? [1] | Unified cytotox (HepG2 cells [2]; [8]) [µM] | pIC50 [3, 9] | further results
COc1ccc(CNCCc2cccs2)cc1-c1cccc(S(=O)(=O)NCCN2CCCC2)c1.O=C(O)C(F)(F)F [TCMDC-132479] | 0 (0: NO) | 11.40 | 5.77 | –
O=C(Nc1ccc(N2CCNCC2)cc1)c1ccn2ncc(-c3cccc(Cl)c3)c2n1 [TCMDC-132663] | 0 (0: NO) | 22.22 | 5.46 | –
NCc1ccc(CNCc2cccc(-c3ccc(-c4nc5ccccc5[nH]4)cc3)c2)cc1.O=C(O)C(F)(F)F [TCMDC-132815] | 1 (1: YES) | 21.82 | 6.32 | –
O=C(O)C(F)(F)F.c1cc(CNCCN2CCNCC2)cc(-c2cccc(-c3nc4ccccc4[nH]3)c2)c1 [TCMDC-132859] | 1 (1: YES) | 19.30 | 6.15 | –
Fc1ccc2[nH]c(-c3cccc(-c4cccc(CNCCN5CCNCC5)c4)c3)nc2c1.O=C(O)C(F)(F)F [TCMDC-132860] | 1 (1: YES) | 19.63 | 6.13 | –
Fc1ccc2[nH]c(-c3cccc(-c4ccc(CNCCN5CCNCC5)cc4)c3)nc2c1.O=C(O)C(F)(F)F [TCMDC-132863] | 1 (1: YES) | 24.16 | 5.84 | –
Cc1cccc2nc(-c3ccc(-c4cccc(CNCCN5CCNCC5)c4)cc3)[nH]c12 [TCMDC-132867] | 1 (1: YES) | 13.40 | 6.08 | –
Cc1cccc2nc(-c3cccc(-c4cccc(CNCCN5CCNCC5)c4)c3)[nH]c12.O=C(O)C(F)(F)F [TCMDC-132873] | 1 (1: YES) | 7.76 | 6.30 | –
CN1CCN(c2nsc3ccc(-c4ccc(NC(=O)Nc5cc(C(F)(F)F)ccc5F)cc4)cc23)CC1.O=C(O)C(F)(F)F [TCMDC-133435] | 0 (0: NO) | 6.40 | 5.12 | –
O=C(Nc1ccc(Cl)c(Cl)c1)Nc1ccccc1N1CCNCC1.O=C(O)C(F)(F)F [TCMDC-133727] | 0 (0: NO) | 11.20 | 5.13 | –
NC1CCN(Cc2ccc(-c3ccc(-c4nc5cc(F)ccc5[nH]4)cc3)cc2)C1.O=C(O)C(F)(F)F (stereo not drawn) [TCMDC-133872] | 0 (0: NO) | 7.25 | 6.08 | –
O=C(O)C(F)(F)F.c1cc(CN2CCC(CCN3CCCCC3)CC2)cc(-c2cccc(-c3nc4ccccc4[nH]3)c2)c1 [TCMDC-133920] | 1 (1: YES) | 13.10 | 6.54 | –
Cc1cccc2nc(-c3ccc(-c4cccc(CN5CCC(CCN6CCCCC6)CC5)c4)s3)[nH]c12.O=C(O)C(F)(F)F [TCMDC-133923] | 0 (0: NO) | 3.87 | 6.34 | –
Nc1ncc(-c2ccc3nccc(-c4ccncc4)c3c2)cc1S(=O)(=O)N1CCOCC1 [TCMDC-134180] | – | 25.00 | 5.16 | HepG2 cytoxicity (HepG2 cells [5]; [14]): >25 µM
COc1ccc2nc(-c3cccc(C)n3)nc(Nc3ccncc3)c2c1 [TCMDC-134670] | – | 25.00 | 5.60 | HepG2 cytoxicity (HepG2 cells [5]; [14]): >25 µM
Cc1cccc(-c2nc(Nc3ccncc3)c3cc(N(C)C)ccc3n2)n1 [TCMDC-135308] | – | 25.00 | 5.58 | HepG2 cytoxicity (HepG2 cells [5]; [14]): >25 µM
